4 molecules from patent US20110275606A1, “SUBSTITUTED PORPHYRINS” (DUKE UNIVERSITY, priority 2009, published 2011) can be followed below.

The nature of series [1]: Thin layer chromatography Rf (lipophilicity). The format is physicochemical. Particulars: thin-layer silica, saturated KNO3(aq):H2O:MeCN (1:1:8); measure of lipophilicity. How it is done: Thin layer chromatography (TLC) was carried out in polyester-backed silica-gel sheets without fluorescent indicator (Sigma-Aldrich Z122777-25EA) cut into ˜2×20 cm strips and eluted with a saturated KNO3(aq):H2O:MeCN (1:1:8, v/v/v) mixture in a capped 1 L chamber. Typically, 1 microliter of ˜1 mM samples were applied at ˜1 cm of the strip border and the solvent front was allowed to run ˜12 cm.
(§1) Table indicating the redox properties (E1/2 of the Mn^IIIP/Mn^IIP redox couple) and antioxidant (log kcat for the dismutation of superoxide, O2′^−) properties of ortho and meta isomers of Mn N-substituted pyridylporphyrins. The E1/2 and log kcat were determined as described in Reboucas et al., Dalton Trans., 2008, 1233-42. Rf is the ratio of the drug path over solvent path on thin-layer silica with water/acetonitrile/KNO3 saturated water and is a measure of […]. […] In addition, as the length of the pyridyl substituent increases the SOD activity of the ortho compounds drops while there is no change in the SOD activity of the meta compounds.
Rf is a measure of lipophilicity and is linearly related to log P where P is the partition coefficient between water and n-octanol. (Kos et al., Free Radic. Biol. Med., 47, 72-78, 2009, which is incorporated by reference herein).

Series [2] deals with A-T cells. Nature of the series: Annexin V/propidium iodide post-radiation apoptosis, A-T cells. It is filed as cell-based. Particulars: 5 Gy. How it is done: (§2) Annexin V/propidium iodide staining is used as a second method to measure radiation-induced cytotoxicity. Cells are incubated in fresh medium along with the compounds at the final concentrations indicated. One set of samples is irradiated (5 Gy) to efficiently induce apoptosis within 48 hours. An annexin V/propidium iodide kit (BioVision) is used to detect apoptotic cells. The annexin V is labeled with fluorescein isothiocyanate (FITC) to detect phospholipid phosphatidylserine (PS) on the outer membrane of apoptotic cells; propidium iodide (PI) is used to detect necrotic cells. The assay is performed according to the manufacturer's instructions. Briefly, approximately 5×10^5 cells are washed in PBS, resuspended in annexin V and PI staining solution for 15 min at room temperature and analyzed immediately by flow cytometry (Flow Cytometry Core, UCLA). Annexin V and propidium iodide staining is used to measure post-radiation apoptosis.

The test system of series [3] is WT cells. Nature of the series: XTT cell proliferation, radiation-induced cytotoxicity. The format is cell-based. Particulars: 5 Gy, 48 hours post-radiation, compared to untreated irradiated WT cells. How it is done: XTT, a tetrazolium salt, is used to measure cell viability after irradiation exposure. XTT is reduced by viable mitochondria to formazan, which causes a colorimetric change that can be measured at 450 nm. Approximately 5×10^4 cells are seeded per well in 96-well plates and incubated for 18 hours in fresh medium along with the compound at the final concentration indicated (3 replicates each). One set of plates is used as an unirradiated control and the other set was irradiated with 5 Gy. Five Gy is the optimal dose for observing efficient cytotoxicity within 48 hours. An XTT cell proliferation kit (Roche) is used to measure this cytotoxicity. All assays are performed in triplicate and the absorbance is read on a Spectramax plate reader. XTT is used to assess both the toxicity of the compounds and the effect of each compound on IR-induced cytotoxicity. All cells are pre-treated with the indicated compound two hours prior to being irradiated with 5 Gy and are assayed for viability 48 hours post-radiation.

The test system of series [4] is CD1 male mice. The experiment in a line: Carrageenan-induced pleurisy. It is filed as in vivo. Particulars: 0.3 mg/kg; 4 h after carrageenan. How it is done:
Pleurisy is induced by carrageenan. Six to eight week old CD1 male mice are used. The mice are anesthetized with isoflurane and a skin incision is made at the level of the left sixth intercostal space. The underlying muscle is dissected and saline (0.2 ml) or saline containing 1% (w/v) λ-carrageenan (Sigma-Aldrich Ltd, 0.2 ml) is injected into the pleural cavity. The skin incision is closed with a suture and the animals are allowed to recover. At 4 h after the injection of carrageenan, the animals are killed. The chest is carefully opened and the pleural cavity is rinsed with 2 ml of saline solution containing heparin (5 U/ml) and indomethacin (10 μg/ml). The exudate and washing solution is removed by aspiration and the total volume is measured. Any exudate, which is contaminated with blood, is discarded. The amount of exudate is calculated by subtracting the volume injected (2 ml) from the total volume recovered. The leukocytes in the exudate are suspended in phosphate-buffer saline (PBS, 0.01M, pH7.4) and counted with an optical microscope in a Burker's chamber after vital Trypan Blue staining.

In series [5] the test system is 4T1 window chamber tumors. Nature of the series: Radiosensitivity of tumor vasculature in vivo (window chamber). More on the design: species or system mice. As to conditions: combined with radiation 3 x 5 Gy; 6 mg/kg/day for three days; between 48 and 72 hours post-radiation. How it is done:
4T1 window chamber tumors are randomized to treatment with PBS or MnTE-2-PyP^5+, and radiation or sham-irradiation. […] Tumors are imaged immediately after radiation (0 hours), and every day thereafter (24, 48, and 72 hours), and these images are used to calculate the tumor vascular length densities.
Mice are anesthetized with sodium pentobarbital (80 mg/kg, i.p.), and a 1-cm diameter circular incision is made in the dorsal skin flap, over which a titanium chamber is surgically implanted. A 10-μL suspension of tumor cells (5×10^3 cells) is then injected into the opposing flap of skin. […] Observations of window chamber tumors are performed daily on restrained, unanaesthetized mice with an inverted Zeiss fluorescence microscope (Carl Zeiss, Jena, Germany). Images are captured onto a personal computer with Scion Image software (Frederick, Md.) and analyzed with Adobe Photoshop (San Jose, Calif.). Tumor volume and vascular length densities are calculated as follows. Briefly, tumor volumes are calculated with the formula: d^2(3.14/2), where the diameter is determined from low-power (2.5×) microscopy images by comparing pixel dimensions with micrometer values. Vascular length densities are measured from medium-power (5×) fields by using image analysis software (Scion Image) to trace the vascular network. […]

Series [6] is described as follows: Antioxidant properties: log kcat for the dismutation of superoxide (SOD activity). The format is biochemical. How it is done: as §1
Series [7] deals with Male Sprague-Dawley rats. Nature of the series: Carrageenan-induced paw oedema. The format is in vivo. Particulars: 0.3 mg/kg; rat paw.
The test system of series [8] is B16F10 melanoma cell line. Nature of the series: Hyperthermia plus Mn porphyrin, tumor growth delay. As to conditions: combination with hyperthermia (1d, 5d, 8d); 5 mg/kg twice per day; sacrifice day 9. It is filed as in vivo, C57/BL6 mice. How it is done:
Treatment with hyperthermia and Mn porphyrins leads to a significant delay in tumor growth. In C57/BL6 mice, B16F10 melanoma cell line ([…]) is implanted in right flank. […] Tumor volumes are measured. Animals are sacrificed at day 9.

In series [9] the test system is Wildtype (WT) cells. Nature of the series: Gamma H2AX immunofluorescence, radiation-induced DNA damage. As to conditions: 2 Gy, assessed at 15 minutes. The format is cell-based. How it is done:
Radiation-induced DNA damage recognition is measured by γ-H2AX immunofluorescence. Wildtype (WT) cells are propagated in fresh medium with the compounds at specified concentrations. […] WT cells are collected at log phase of their growth cycle, after an 18-hour incubation with the indicated compounds. After treatment, the cells are irradiated with 2 Gy and assessed at 15 minutes. These conditions maximize the yield of DNA damaged cells while minimizing cytotoxicity. The cells are dropped onto cover slips and fixed with 4% paraformaldehyde, semi-permeabilized with 0.5% Triton-X 100 and washed with PBS. Cells are incubated with 1:400 dilution of mouse monoclonal antibody to γ-H2AX (Upstate Biotechnology), followed by 1:200 dilution of goat anti-mouse IgG antibody to immunoglobulin labeled with FITC (Jackson Immunochemicals) in PBS containing 10% FBS for 1.5 and 1 h, respectively. Slides are analyzed for γ-H2AX nuclear foci formation with FISH analysis software (Vysis) on a Leica DM RXA automated microscope equipped with Photometrix SenSyn. All slides are coded by one person and read blindly by another.

Series [10] can be described thus: Redox properties: E1/2 of the Mn^IIIP/Mn^IIP redox couple. The format is physicochemical. How it is done:
as §1

The test system of series [11] is wild type cells. The experiment in a line: Annexin V/propidium iodide post-radiation apoptosis, wild type cells. The format is cell-based. As to conditions: 5 Gy. How it is done:
as §2

The subject of series [12] is SOD-deficient E. coli. The experiment in a line: Aerobic growth of SOD-deficient E. coli in minimal medium (turbidimetry at 700 nm). The format is cell-based, Escherichia coli. Particulars: 20 and 30 μM, 19th hour, positive control MnTE-2-PyP^5+. How it is done:
Escherichia coli (E. coli) strains used were AB1157, wild type (F-thr-1; leuB6; proA2; his-4; thi-1; argE2; lacY1; galK2; rpsL; supE44; ara-14; xyl-15; mtl-1; tsx-33), and JI1132, SOD-deficient, sodA-sodB-(same as AB1157 plus (sodA::mudPR13)25 (sodB-kan)1-Δ2). Both strains were obtained from J. A. Imlay. In addition to AB/JI strains another strain GC and its SOD-deficient analogue QC were used. The experiments were carried out as described in more detail in Reboucas et al., Dalton Trans., 2008, 1233-42. Briefly, cultures were grown aerobically in a 5 amino acid restricted medium (L-leucine, L-threonine, L-proline, L-arginine, L-histidine) in flasks on a water bath shaker at 37° C. and 200 rpm. The effect of the compound of Example 1 on the growth of these strains was followed turbidimetrically at 700 nm (to minimize the interference of compounds studied) and compared to the growth curves of both strains in the absence of Mn porphyrin (controls). Deionized water was used throughout the study. The effects are shown in FIG. 2 for one strain (QC and GC) and in FIG. 3 for other strain (AB and JI). […] The effects varied with the type of the strain.

On to `OCCC[n+]1ccccc1-c1c2nc(c(-c3cccc[n+]3CCCO)c3ccc([nH]3)c(-c3cccc[n+]3CCCO)c3nc(c(-c4cccc[n+]4CCCO)c4ccc1[nH]4)C=C3)C=C2` [H2TnPrOH-2-PyP], for which the Rf in [1] is listed as 0.09.

In series [1], `OCCC[n+]1cccc(-c2c3nc(c(-c4ccc[n+](CCCO)c4)c4ccc([nH]4)c(-c4ccc[n+](CCCO)c4)c4nc(c(-c5ccc[n+](CCCO)c5)c5ccc2[nH]5)C=C4)C=C3)c1` [H2TnPrOH-3-PyP] came in with a Rf of 0.1.

In the case of MnTnPrOH-2-PyP^5+, the “reduction in the percentage of apoptotic cells after radiation exposure” value (“reduction in the percentage” for short) in series [2] came out at 40%. For the same molecule, the “reduction of IR-induced cytotoxicity” value in [3] came to 50%. In [4], the “decrease of myeloperoxidase activity” value is “to control levels”, the “decrease of number of polymorphonuclear cells” value is given as “to control levels” and the “decrease of volume of exudates” value is listed as “to control levels”. Besides, the “tumor devascularization (vascular length density)” value in series [5] was “significant tumor devascularization”. Further, the logkcat in [6] was found to be 7.38. In series [7], the “decrease of myeloperoxidase activity” value is on record as “to control levels” and the “decrease of number of polymorphonuclear cells” value is on record as “to control levels”. For the same molecule, the “delay of tumor growth” value in series [8] is recorded as “Full delay of tumor growth”. Further, in [9], the “reduction of IR-induced γ-H2AX immunofluorescent nuclear foci (IRIFs)” value is reported as 57%. The E1/2 entry in series [10] is on record as “+238 mV”. Further, the “reduction in the percentage” value in series [11] was 60%. In series [1], the Rf turned out to be 0.05.

Take MnTnPrOH-3-PyP^5+: the “reduction in the percentage” value in series [2] is listed as 40%; in series [11] it was 60%. Further, the “reduction of IR-induced cytotoxicity” value in series [3] is recorded as 50%. Besides, the “decrease of myeloperoxidase activity” value in [4] and in series [7] was “to control levels” throughout. Moreover, the “decrease of number of polymorphonuclear cells” value in series [4] and in series [7] was “to control levels” in each case. In series [4], the “decrease of volume of exudates” value is reported as “to control levels”. In addition, in [5], the “tumor devascularization (vascular length density)” value is given as “significant tumor devascularization”. This molecule also came in with a logkcat in series [6] of 6.83. Further, the “delay of tumor growth” value in series [8] is “Full delay of tumor growth”. Also, the “reduction of IR-induced γ-H2AX immunofluorescent nuclear foci (IRIFs)” value in series [9] was found to be 57%. The E1/2 entry in [10] was “+52 mV”. Besides, in series [12] (SOD-deficient strain JI / wild type AB), the “protecting E. coli compared with MnTE-2-PyP^5+ (FIG. 3)” value is reported as “better”. The “protecting E. coli compared with MnTE-2-PyP^5+ (FIG. 2)” value in series [12] (SOD-deficient strain QC / wild type GC) is “similar”.
